Laboratory results: the supplement of paper PMC10307832

Experiments:
Test in all cases: relative viability (nuclei count vs DMSO), 5 days (fraction); higher = more cells survive
KIN001-266 + Luminespib = compound: CCN1CCC(CC1)N2C=C(N=N2)CNC3=CC4=C(C(=CN=C4C(=C3)Cl)C#N)NC5=CC(=C(C=C5)F)Cl [KIN001-266] + CCNC(=O)c1noc(-c2cc(C(C)C)c(O)cc2O)c1-c1ccc(CN2CCOCC2)cc1 [Luminespib] (partner 0.01 µM)
In short: (§1)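 Relative viability is defined as nuclei in treated wells over nuclei in vehicle wells. Duplicate plates were run and medians reported. Lung cancer cell lines in 1536-well plates were dosed by pin tool one day after seeding, with one drug or with a fixed anchor-drug dose plus five library-drug doses (not always all listed) in √10 steps, and nuclei were counted after 5 days.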

KIN001-266 + OSI-027 = compound: CCN1CCC(CC1)N2C=C(N=N2)CNC3=CC4=C(C(=CN=C4C(=C3)Cl)C#N)NC5=CC(=C(C=C5)F)Cl [KIN001-266] + COc1cccc2cc(-c3nc([C@H]4CC[C@H](C(=O)O)CC4)n4ncnc(N)c34)[nH]c12 [OSI-027] (partner 0.5 µM)
In short: as §1

KIN001-266 + Lapatinib = compound: CCN1CCC(CC1)N2C=C(N=N2)CNC3=CC4=C(C(=CN=C4C(=C3)Cl)C#N)NC5=CC(=C(C=C5)F)Cl [KIN001-266] + CS(=O)(=O)CCNCc1ccc(-c2ccc3ncnc(Nc4ccc(OCc5cccc(F)c5)c(Cl)c4)c3c2)o1 [Lapatinib] (partner 2 µM)
In short: as §1

KIN001-266 + Linsitinib = compound: CCN1CCC(CC1)N2C=C(N=N2)CNC3=CC4=C(C(=CN=C4C(=C3)Cl)C#N)NC5=CC(=C(C=C5)F)Cl [KIN001-266] + C[C@]1(O)C[C@@H](c2nc(-c3ccc4ccc(-c5ccccc5)nc4c3)c3c(N)nccn32)C1 [Linsitinib] (partner 1 µM)
In short: as §1

Cell Line	relative viability (KIN001-266 + Luminespib; first compound 0.08 µM)	relative viability (KIN001-266 + Luminespib; first compound 0.253 µM)	relative viability (KIN001-266 + Luminespib; first compound 0.8 µM)	relative viability (KIN001-266 + Luminespib; first compound 2.53 µM)	relative viability (KIN001-266 + Luminespib; first compound 8 µM)	relative viability (KIN001-266 + OSI-027; first compound 0.08 µM)	relative viability (KIN001-266 + OSI-027; first compound 0.253 µM)	relative viability (KIN001-266 + OSI-027; first compound 0.8 µM)	relative viability (KIN001-266 + OSI-027; first compound 2.53 µM)	relative viability (KIN001-266 + OSI-027; first compound 8 µM)	relative viability (KIN001-266 + Lapatinib; first compound 0.08 µM)	relative viability (KIN001-266 + Lapatinib; first compound 0.253 µM)	relative viability (KIN001-266 + Lapatinib; first compound 0.8 µM)	relative viability (KIN001-266 + Lapatinib; first compound 2.53 µM)	relative viability (KIN001-266 + Lapatinib; first compound 8 µM)	relative viability (KIN001-266 + Linsitinib; first compound 0.08 µM)	relative viability (KIN001-266 + Linsitinib; first compound 0.253 µM)	relative viability (KIN001-266 + Linsitinib; first compound 0.8 µM)	relative viability (KIN001-266 + Linsitinib; first compound 2.53 µM)	relative viability (KIN001-266 + Linsitinib; first compound 8 µM)
NCI-H1755	0.339	0.799	0.389	0.445	0.418	0.74	0.739	0.679	0.723	0.651	0.987	1.04	1.06	0.996	0.987	1	0.973	0.965	0.955	0.844
NCI-H2087	0.199	0.156	0.173	0.165	0.184	0.823	0.65	0.599	0.458	0.486	1.03	1.05	1.06	0.987	0.875	0.924	0.95	0.963	0.791	0.599
NCI-H2228	0.136	0.13	0.145	0.172	0.112	0.623	0.428	0.606	0.462	0.34	1.06	1.04	0.883	0.834	0.882	0.94	0.813	0.483	0.518	0.454
NCI-H727	0.359	0.316	0.346	0.246	0.514	0.646	0.573	0.593	0.541	0.527	0.821	1.1	0.806	0.805	0.537	0.296	0.283	0.237	0.284	0.333
NCI-H650	0.847	0.902	0.838	0.822	0.81	0.62	0.591	0.563	0.493	0.55	1.04	1.07	0.849	1.12	1.16	0.914	1.05	0.976	0.979	1.03
NCI-H520	0.246	0.289	0.228	0.192	0.22	0.232	0.351	0.278	0.235	0.297	0.899	0.85	1.02	0.718	0.886	1.01	0.969	1.06	0.769	0.894
EBC-1											0.219	0.218	0.209	0.199	0.201	1.04	0.896	0.839	1.01	0.726
NCI-H661	0.887	0.946	0.968	0.915	0.559	0.693	0.745	0.723	0.627	0.514	0.494	0.449	0.532	0.438	0.29	0.551	0.514	0.537	0.515	0.425
NCI-H1299											0.918	0.959	0.902	0.854	0.855	0.955	0.984	1	0.946	0.899
LK-2	0.204	0.16	0.191	0.187	0.168	0.215	0.187	0.199	0.168	0.222	1.06	0.836	0.884	0.834	1.05	0.583	0.603	0.64	0.516	0.655
NCI-H2170	0.704	0.801	0.675	0.739	0.568	0.734	0.769	0.708	0.639	0.719	0.29	0.268	0.266	0.247	0.255					
NCI-H1648						0.28	0.256	0.273	0.257	0.273										
LCLC-103H	0.96	1.01	0.95	0.923	0.695	0.49	0.469	0.452	0.484	0.469						1.02	1.04	1.16	1.09	0.96
NCI-H441	0.32	0.354	0.328	0.286	0.302	0.829	0.695	0.585	0.563	0.479						0.7	0.454	0.456	0.565	0.59
NCI-H1650	0.193	0.207	0.196	0.177	0.203	0.872	0.786	0.507	0.397	0.337	0.881	0.873	0.826	0.641	0.42					
SW 900	0.143	0.177	0.154	0.173	0.167	0.738	0.366	0.551	0.485	0.325										
IA-LM											0.967	0.752	0.989	0.861	0.474	0.51	0.435	0.58	0.584	0.641
NCI-H2342	0.745	0.716	0.689	0.721	0.865	0.607	0.626	0.564	0.708	0.754										
HCC-366						1.14	0.977	0.936	0.826	0.412	0.911	1.03	1	1.05	1.02	0.547	0.607	0.821	0.476	0.545
NCI-H522	1.09	1.19	0.99	0.912	1.05	0.879	0.74	0.677	0.659	0.659										
HCC-78						0.34	0.39		0.308	0.37	0.79	0.612	0.597	0.731	0.773	0.465	0.516	0.451	0.459	0.642
